Series [1] relates to HTLV-IIIB. Kind of series: p24 antigen production in PHA-activated PBMCs infected with HTLV-IIIB. Format: cell-based, HIV-1. Conditions: for IC90 / inhibition at 10 µM: Human immunodeficiency virus 1, IIIB, PBMC; for IC90: read-out: IC90 (concentration of nucleoside analog that reduced the p24 antigen value of the untreated control by 90%). The text has this:
The antiviral activities of RV alone and in combination with nucleoside analogs were investigated in PHA-stimulated PBMCs from seronegative donors. RV, ddC, ddI, and AZT were purchased from Sigma (St. Louis, Mo.). The HIV-1 T-cell line adapted isolate HTLV-IIIB was obtained from Dr. Gallo, at the National Institutes of Health AIDS Research and Reference Reagent Program (Catalog #398, Rockville, Md.). Primary strains of HIV-1 were isolated by coculturing 10^7 patient PBMC with an equal number of PHA-stimulated PBMC from a normal donor. Titration of stocks and MT-2 phenotype determination were carried out as described (ACTG Virology Manual, NIH Pub No. 94 3828, 1994). The SI phenotype was determined by assessing viral growth and syncytia formation in the MT-2 cell line obtained from Dr. Richman at the National Institutes of Health AIDS Research and Reference Reagent Program (Catalog #237, Rockville, Md.).
Primary PBMCs were separated from whole blood of HIV seronegative donors by density centrifugation over Ficoll-Hypaque (Sigma). The culture medium consisted of RPMI supplemented with 10% fetal bovine serum (FBS), 2 mM glutamine and penicillin/streptomycin (Gibco, Grand Island, N.Y.).
For infection studies involving PBMCs, cells were stimulated with 2.5 or 10 μg/ml phytohemagglutinin (PHA; Boehringer Mannheim, Indianapolis, Ind.) for 3 days. Stimulated PBMCs were infected by incubation with virus at a multiplicity of infection of 1000 TCID50/10^6 PBMC for 2 hours. PBMCs were then washed three times with PBS and cultured in 5% CO2 at 37° C., in RPMI/10% FBS supplemented with 10 units/ml IL-2 (Boehringer Mannheim) and drugs as appropriate. PBMCs were seeded in 96-well flat-bottom plates at a density of 2×10^5 PBMCs/200 μl. Following 3 days of culture half of the medium was replaced with fresh medium containing IL-2 and drugs. After 7 days of culture, HIV-1 p24 antigen production in the culture supernatant was assayed by ELISA (Coulter, Hialeah, Fla.). The concentration of nucleoside analog, alone and in combination with resveratrol, that reduced the p24 antigen value of the untreated control by 90% (IC90) was calculated by using nonparametric regression analysis. The analysis used the median-effect equation, Fa=1/[1+(Dm/D)]^m, where D is the dose, Fa is the fraction affected, and Dm is the dose required to produce the median effect.
Cells were infected with the T-cell tropic isolate HTLV-IIIB for 2 hours, and then cultured in varying concentrations of RV with or without nucleoside analogs. Virus replication was measured by p24 antigen production by ELISA using a standard commercial kit in the culture supernatants on days 7 and 10 after infection.
Activated PBMCs infected with HTLV-IIIB were cultured in the presence of ddI plus HU (100 μM) or RV (5 and 10 μM). […] Virus production in the presence of the different drug concentrations was evaluated on day 7 after infection.

Series [2] concerns HIV-165R, 74V, 184V. Kind of series: p24 antigen in activated PBMCs infected with isolate 65R, 74V, 184V. Format: cell-based, HIV-1. Conditions: Human immunodeficiency virus 1, PBMC, read-out: ddI IC90. The text has this:
(§1) The present example provides data to test whether viral isolates carrying mutations in the RT gene that confer resistance to ddI could be rendered sensitive when the nucleoside analogue was combined with RV. Viruses containing one or more of the mutations associated with resistance to ddI, e.g., an isolate carrying the L74V mutation which confers primary resistance to ddI, a virus isolate carrying 4 different resistance-associated mutations in the RT gene (HIV-1 RTMDR1) were used to infect PHA-stimulated PBMCs. The HIV-174V isolate, and the HIV-1RTMDR1 isolate (containing the M41L, L74V, V106A and T215Y mutations, conferring resistance to AZT, ddI, nevirapine and other non-nucleotide RT inhibitors) were obtained from Dr. Larder at the National Institutes of Health AIDS Research and Reference Reagent Program (Catalog #2528 and #2529, respectively, Rockville, Md.). In addition, viruses having mutations 65R, 74V, 184V in the RT gene, and a virus containing the multiple-nucleoside-resistance mutation 151M were assayed in infectivity assays using RV plus ddI. The mutations present in the RT gene of each virus as well as their susceptibility to ddI are as follows: HIV-174V(ddIIC90=2.6 μM); HIV-141L, 74V, 106A, 215Y (ddIIC90=4.5 μM); HIV-165R, 74V, 184V (ddIIC90>20 μM) and HIV-162V, 751, 77L, 151M (ddIIC90>20 μM). […]

In series [3] the test system is HIV-162V, 751, 77L, 151M. Kind of series: p24 antigen in activated PBMCs infected with isolate 62V, 75I, 77L, 151M. It counts as cell-based, HIV-1. Conditions: Human immunodeficiency virus 1, PBMC, read-out: ddI IC90.
Text: as §1

In series [4] the test system is PHA-stimulated PBMCs. Kind of series: MTT cell proliferation assay in PHA-stimulated PBMCs. Format: cell-based, human. As to the method: The effect of RV and […] on PBMC proliferation at the concentrations shown to enhance the anti-HIV effect of ddI were examined. Cellular proliferation in culture in the presence or absence of drugs was measured by commercial MTT assay, according to the manufacturer's instructions (Boehringer Mannheim). Cell viability was determined by trypan blue staining.
Proliferation was measured on PHA-stimulated PBMCs cultured in the presence of IL-2, 2 μM ddI, and RV or HU. The MTT assay was performed on days 2 and 5 (FIG. 8), and days 2 and 7 (FIG. 20) after the addition of the drugs. […] On day 5, RV at 10 μM inhibited proliferation by 30%, whereas HU inhibited proliferation by 40 to 50%, depending on the donor.
Proliferating PBMCs were cultured in the presence of RV or HU for 5 days. On day 2 and 5 an MTT assay and a ^3H-thymidine incorporation assay were performed. The MTT is a […] assay that measures cellular metabolic activity and directly correlates to the number of cells in the culture. The ^3H-thymidine incorporation assay relies on the incorporation of the radioactive nucleoside ^3H-thymidine into newly synthesized DNA. […] These differences between the effects of RV and HU were even more striking in the MTT and ^3H-thymidine incorporation assays conducted on day 5 (FIG. 12 and FIG. 13, respectively).
In general terms: Formazan colour is commonly taken as a measure of viable cells.

Like-named read-outs stand apart in the source and are kept apart here.

Experimental findings from US6479466B1, “Compositions for treating viral infections, and methods therefor” (University of Maryland, priority 1999, dated 2002) are described below.

As to `OC[C@@H]1CC[C@H](n2cnc3c(O)ncnc32)O1` [ddI, 2′,3′-dideoxyinosine], the IC90 in series [1] (168 h, in combination with 5 μM RV, day 7) was 1.3 µM; in series [1] (168 h, nucleoside analog alone, day 7), 7.5 µM; in series [2] it was above 20 µM; in series [3], above 20 µM. The “increase in antiviral activity” value in series [1] (addition of 10 μM RV to 2 μM ddI) is given as 200 fold. In addition, the “reduction of IC90 value” in series [1] (in combination with 5 μM RV) was found to be 5.7 fold; in series [1] (in the presence of 10 μM RV), 17.8 fold.

Usually inhibition stands for the drop in the measured response relative to a control, in per cent. Turning to `Oc1ccc(/C=C/c2cc(O)cc(O)c2)cc1` [RV, trans-3, 4′, 5-trihydroxystilbene], the inhibition at 10 µM was above 99% in series [1] (168 h, 10 μM RV combined with 0.5 μM ddI, day 7, read-out: inhibition of virus replication); 94% in series [1] (168 h, 10 μM RV in combination with 0.25 μM ddI, day 7, read-out: inhibition of HIV-1 replication); around 30% in series [1] (RV 10 μM alone, read-out: inhibition of viral replication). Besides, in series [1] (RV 5 μM alone), the “reduction of virus production” value is reported as “approximately 10%”. For the same compound, the “impact on cell proliferation” value in series [4] (5 μM RV, with IL-2 and 2 μM ddI) is on record as “Minimal impact on cell proliferation”. Besides, the “OD values in the MTT assay” value in series [4] (10 μM RV, day 7, with IL-2 and 2 μM ddI) is listed as “higher than those obtained with 100 μM HU”. The MTT values entry in series [4] (RV 10 μM, day 2, no ddI) is given as “slightly lower than the untreated control”. Further, the inhibition of proliferation entry in series [4] (RV 10 μM, day 2, with IL-2 and 2 μM ddI) is recorded as “inhibited proliferation slightly”; in series [4] (RV 10 μM, day 5, with IL-2 and 2 μM ddI), 30%.
